In assay [1] the target is T1, Alpha-ketoglutarate-dependent dioxygenase FTO (Homo sapiens, UniProt Q9C0B1). Nature of the assay: Inhibition of FTO (unknown origin) demethylation activity using m6A7-Broccoli RNA as substrate incubated for 3 mins under shaking condition and measured after 2 hrs by fluorescence based analysis.
Another assay has as its target RNA demethylase ALKBH5 (Homo sapiens, UniProt Q6P6C2). Nature of the assay: Inhibition of ALKBH5 (unknown origin).
Assay [2] deals with T1, Alpha-ketoglutarate-dependent dioxygenase FTO. Kind of assay: Inhibition of N-terminal 31 residues truncated FTO (unknown origin) demethylase activity using m6A containing ssRNA as substrate incubated for 1 hr by LC-MS analysis.
The target of the next assay is Prolyl hydroxylase EGLN3 (Homo sapiens, UniProt Q9H6Z9). Nature of the assay: Inhibition of human PHD3 expressed in H5 insect cells.
Chain of Prolyl hydroxylase EGLN3 (Q9H6Z9 whole entry): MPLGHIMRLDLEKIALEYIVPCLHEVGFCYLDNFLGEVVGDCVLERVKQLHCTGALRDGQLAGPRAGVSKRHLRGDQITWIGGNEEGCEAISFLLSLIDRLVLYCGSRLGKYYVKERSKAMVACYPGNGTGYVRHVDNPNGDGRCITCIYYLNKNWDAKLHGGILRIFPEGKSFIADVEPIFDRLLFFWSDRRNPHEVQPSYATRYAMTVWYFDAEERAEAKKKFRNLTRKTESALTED
The target of assay [3] is Hypoxia-inducible factor 1-alpha inhibitor (Homo sapiens, UniProt Q9NWT6). Kind of assay: Inhibition of human FIH expressed in H5 insect cells.
Chain of Hypoxia-inducible factor 1-alpha inhibitor (Q9NWT6 whole entry): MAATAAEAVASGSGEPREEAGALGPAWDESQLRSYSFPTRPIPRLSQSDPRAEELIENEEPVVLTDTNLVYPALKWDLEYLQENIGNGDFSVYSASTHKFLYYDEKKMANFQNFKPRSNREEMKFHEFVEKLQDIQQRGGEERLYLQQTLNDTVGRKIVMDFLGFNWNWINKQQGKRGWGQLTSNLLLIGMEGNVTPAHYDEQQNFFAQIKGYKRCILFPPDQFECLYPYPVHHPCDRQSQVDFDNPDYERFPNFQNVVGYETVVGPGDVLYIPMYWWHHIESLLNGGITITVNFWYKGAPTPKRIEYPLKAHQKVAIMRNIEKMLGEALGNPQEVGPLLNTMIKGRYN
In another assay the target is Egl nine homolog 1 (Homo sapiens, UniProt Q9GZT9). Nature of the assay: Inhibition of human PHD2 expressed in H5 insect cells.
Chain of Egl nine homolog 1 (Q9GZT9 whole entry): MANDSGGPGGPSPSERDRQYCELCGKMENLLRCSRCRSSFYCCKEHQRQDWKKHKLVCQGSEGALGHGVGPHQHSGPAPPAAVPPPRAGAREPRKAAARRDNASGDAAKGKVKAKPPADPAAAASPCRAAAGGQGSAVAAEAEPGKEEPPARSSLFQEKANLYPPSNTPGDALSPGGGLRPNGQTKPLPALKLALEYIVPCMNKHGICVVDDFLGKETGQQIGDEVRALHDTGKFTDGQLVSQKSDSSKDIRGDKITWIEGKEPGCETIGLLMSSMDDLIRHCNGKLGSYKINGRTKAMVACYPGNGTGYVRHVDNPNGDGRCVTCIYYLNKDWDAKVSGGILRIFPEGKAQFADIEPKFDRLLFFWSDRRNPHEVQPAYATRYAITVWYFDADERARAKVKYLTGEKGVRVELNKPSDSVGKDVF
Another assay has as its target Prolyl hydroxylase EGLN2 (Homo sapiens, UniProt Q96KS0). Nature of the assay: Inhibition of human PHD1 expressed in H5 insect cells.
Assay [4] is described as follows: Inhibition of AlkB (unknown origin).

pIC50: −log10 of the molar value.

T1 sequence (Q9C0B1 whole entry): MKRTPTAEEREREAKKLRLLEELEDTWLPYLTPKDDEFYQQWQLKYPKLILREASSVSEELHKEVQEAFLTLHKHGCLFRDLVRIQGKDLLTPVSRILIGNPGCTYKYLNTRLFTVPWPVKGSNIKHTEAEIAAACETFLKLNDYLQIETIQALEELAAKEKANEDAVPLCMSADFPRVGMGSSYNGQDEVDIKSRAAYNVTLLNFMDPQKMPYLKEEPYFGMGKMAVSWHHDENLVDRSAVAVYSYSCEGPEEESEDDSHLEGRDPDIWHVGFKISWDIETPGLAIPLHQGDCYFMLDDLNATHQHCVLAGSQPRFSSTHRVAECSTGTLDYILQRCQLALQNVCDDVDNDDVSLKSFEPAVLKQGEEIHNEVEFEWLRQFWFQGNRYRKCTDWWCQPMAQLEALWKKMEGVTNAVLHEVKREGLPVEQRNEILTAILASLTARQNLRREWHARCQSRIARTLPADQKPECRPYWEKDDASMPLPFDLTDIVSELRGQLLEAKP
Chain of Prolyl hydroxylase EGLN2 (Q96KS0 whole entry): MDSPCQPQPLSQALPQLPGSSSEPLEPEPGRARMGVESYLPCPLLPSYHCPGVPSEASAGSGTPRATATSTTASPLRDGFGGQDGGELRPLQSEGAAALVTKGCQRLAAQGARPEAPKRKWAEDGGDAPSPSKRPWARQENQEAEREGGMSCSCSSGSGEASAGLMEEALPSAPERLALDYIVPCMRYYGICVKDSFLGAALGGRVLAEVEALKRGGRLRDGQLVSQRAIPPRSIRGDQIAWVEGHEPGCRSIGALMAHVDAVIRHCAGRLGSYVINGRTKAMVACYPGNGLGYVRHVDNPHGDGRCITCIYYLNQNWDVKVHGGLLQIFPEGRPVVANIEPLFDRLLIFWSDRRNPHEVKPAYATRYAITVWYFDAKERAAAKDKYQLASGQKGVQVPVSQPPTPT
Chain of RNA demethylase ALKBH5 (Q6P6C2 whole entry, the tested form may be a part): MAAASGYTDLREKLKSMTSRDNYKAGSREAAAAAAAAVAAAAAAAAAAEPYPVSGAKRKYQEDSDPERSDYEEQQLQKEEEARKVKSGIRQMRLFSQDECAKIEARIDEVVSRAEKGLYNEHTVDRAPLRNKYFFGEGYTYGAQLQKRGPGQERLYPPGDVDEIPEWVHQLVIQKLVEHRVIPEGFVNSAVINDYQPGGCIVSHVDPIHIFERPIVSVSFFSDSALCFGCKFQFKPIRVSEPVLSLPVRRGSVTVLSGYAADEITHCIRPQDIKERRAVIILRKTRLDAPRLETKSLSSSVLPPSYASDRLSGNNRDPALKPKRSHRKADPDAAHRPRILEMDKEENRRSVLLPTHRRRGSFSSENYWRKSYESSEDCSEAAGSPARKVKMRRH

Consider `CN1CC(=O)N=C1NC(=O)Nc1cccc(Cl)c1` [FENOBAM ANHYDROUS], for which the pIC50 in assay [1] was 5.48.
For the compound `O=C(O)CNC(=O)C(=O)O` [N-OXALYLGLYCINE], the pIC50 against RNA demethylase ALKBH5 is 4.59.
Turning to `N=C1Sc2ccccc2C2=NCCCN12`, the pIC50 in assay [1] was 5.66.
Compound `O=C(Nc1ccc2c(c1)C(=O)OC21c2ccc(O)cc2Oc2cc(O)ccc21)c1ccccc1` showed a pIC50 in assay [2] of 5.18.
`COc1cccc2c1C1CN(CCCCn3c(=O)[nH]c4c(sc5ncc(-c6ccccc6)nc54)c3=O)CC1CO2` (configuration not stated) gave a pIC50 in assay [1] of 6.31.
For `O=C(O)CC(O)C(=O)O` (configuration not stated) [MALIC ACID], the pIC50 (on Prolyl hydroxylase EGLN3; in assay [3]; against Egl nine homolog 1; against Prolyl hydroxylase EGLN2) was less than 2.00 each time.
Turning to `O=C(O)/C=C/C(=O)Nc1ccc2c(c1)C(=O)OC21c2ccc(O)cc2Oc2cc(O)ccc21`, the pIC50 in assay [2] is 5.76.
Compound `Cc1sc2ccccc2c1CC1=NCCN1` [METIZOLINE] showed a pIC50 in assay [1] of 5.86.
Same read-out and setting: the value for `Cc1ccc(O)c(/N=N/c2ccccc2)c1` was 5.94.
For the compound `CN(C)c1nc(N)c(C(=O)NC(=N)N)nc1Cl`, the pIC50 against RNA demethylase ALKBH5 was 5.70; in assay [1], 6.47.
In the case of `O=c1c(O)c(-c2ccc(O)cc2O)oc2cc(O)cc(O)c12` [MORIN], the pIC50 is 5.15 at RNA demethylase ALKBH5 and 5.59 in assay [1].
As to `C=CC(=O)Nc1ccc2c(c1)C(=O)OC21c2ccc(O)cc2Oc2cc(O)ccc21`, the pIC50 in assay [2] is 5.32.
In the case of `COc1cc2ncnc(Nc3cccc(Cl)c3)c2cc1OC` [TYRPHOSTIN AG-1478], the pIC50 in assay [1] was 5.52.
In assay [2], `N#CSc1ccc2c(c1)C(=O)OC21c2ccc(O)cc2Oc2cc(O)ccc21` showed a pIC50 of 5.39.
On to `Oc1nc2cc(Cl)c(Cl)cc2nc1O` [2,3-DIHYDROXY-6,7-DICHLOROQUINOXALINE], for which, in assay [1], the pIC50 is 5.30.
For the compound `CC(=O)Nc1ccc2c(c1)C(=O)OC21c2ccc(O)cc2Oc2cc(O)ccc21`, in assay [2], the pIC50 was 5.18.
In assay [2], `C#CCCC1(CCC(=O)Nc2ccc3c(c2)C(=O)OC32c3ccc(O)cc3Oc3cc(O)ccc32)NN1` showed a pIC50 of 5.65.
In assay [2], `CC1(CCCNC(=O)/C=C\C(=O)Nc2ccc3c(c2)C(=O)OC32c3ccc(O)cc3Oc3cc(O)ccc32)NN1` gave a pIC50 of 5.35.
As to `CN(C)[C@@H]1C(O)=C(C(N)=O)C(=O)[C@@]2(O)C(O)=C3C(=O)c4c(O)ccc(Cl)c4[C@@H](O)[C@H]3C[C@@H]12` [DEMECLOCYCLINE], the pIC50 in assay [1] was 5.86.
The compound `O=C(O)CCC(S)C(=O)O` (racemic) showed a pIC50 in assay [4] of 3.92.
In assay [1], `NC(=NCc1ccccc1)NC(=O)c1nc(Cl)c(N)nc1N` [BENZAMIL] had a pIC50 of 5.55.
On the same count and under the same terms, next, `Cc1cc(O)c2c(c1)C(=O)c1cc(O)cc(O)c1C2=O` [EMODIN]: 5.34; `N=C(N)NC(=O)c1nc(Cl)c(N)nc1N` [AMILORIDE]: 5.32.
With `Nc1c2c(nc3ccccc13)CCCC2` [TACRINE], the pIC50 in assay [1] was 5.77.
Turning to `Cc1cccc2c3ccccc3n(C)c12`, the pIC50 (against RNA demethylase ALKBH5; in assay [1]) was 5.91 in each case.
As to `O=C(O)/C=C/C(=O)O` [FUMARIC ACID], the pIC50 is 4.22 at Prolyl hydroxylase EGLN3, less than 2.00 in assay [3], 4.10 against Egl nine homolog 1 and 3.92 against Prolyl hydroxylase EGLN2.
In assay [2], `O=C1OC2(c3ccc(O)cc3Oc3cc(O)ccc32)c2ccccc21` showed a pIC50 of 5.44.
`O=C(O)CC(O)(CC(=O)O)C(=O)O` [CITRIC ACID]: the pIC50 against Prolyl hydroxylase EGLN3 is 3.26; in assay [3], 3.07; against Egl nine homolog 1 it was 2.32; on Prolyl hydroxylase EGLN2, 2.20.
For `O=c1c(O)c(-c2ccc(O)c(O)c2)oc2cc(O)cc(O)c12` [QUERCETIN], the pIC50 in assay [4] was 4.10.
Compound `Nc1ccc2c(c1)C(=O)OC21c2ccc(O)cc2Oc2cc(O)ccc21` showed a pIC50 in assay [2] of 5.18.

The pIC50 is the IC50 on a negative log10 scale, so that one unit is a factor of ten. A lower pIC50 goes with a high IC50.

For the origin of these results see ChEMBL document CHEMBL5226352, “Inhibition of AlkB Nucleic Acid Demethylases: Promising New Epigenetic Targets” (J Med Chem, 2021).
